Source: patent US6720346B2, “Thiazole benzamide derivatives and pharmaceutical compositions for inhibiting cell proliferation” (Agouron Pharmaceuticals, Inc., priority 2001, dated 2004)

How the values were obtained:
HCT-116 cell line = assay: Inhibition of cell growth, MTT tetrazolium salt assay; type: cell-based; conditions: HCT-116 cells; for HCT-116 % Inhibition at 0.1 μM: 0.1 μM compound; for HCT-116 % Inhibition at 0.25 μM: 0.25 μM compound
In short: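 HCT-116 cells in McCoy's 5A were dosed 4 h after plating with compounds in 0.5% DMSO and grown 3–5 days at 37 °C. Then 0.2 mg/mL MTT was added for 4 h and formazan absorbance read at 540 nm. IC50/IC90 came from semi-log plots against DMSO-only controls.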

CDK2/cyclin A = molecular target: T1, CDK2/cyclin A (Homo sapiens, UniProt P24941); assay: Inhibition of CDK2/cyclin A retinoblastoma kinase activity (Ki; % inhibition); type: biochemical; conditions: 0.03 μM compound
T1 construct: made in house; host or cells: CDK2: insect cells (baculovirus); cyclin A: E. coli
In short: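 Radiometric filter assay of CDK2/proteolyzed cyclin A (baculovirus-expressed human CDK2, 10 or 19 nM) phosphorylating an Rb fragment with 25 μM [³²P/³³P]ATP in pH 7.4 HEPES, 2% DMSO, at 30 °C for 60 or 75 min under initial-rate conditions. Library compounds screened at 30 nM for % inhibition; apparent Ki from concentration series fit to competitive or tight-binding inhibition equations.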

human CDK4/cyclin D3 = molecular target: T2, human CDK4/cyclin D3 (Homo sapiens, UniProt P11802); assay: Inhibition of CDK4/cyclin D retinoblastoma kinase activity (Ki; % inhibition); type: biochemical; conditions: 0.03 μM compound
T2 construct: made in house; host or cells: insect cells co-infected with baculovirus vectors
In short: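 Insect-cell-expressed CDK4 with truncated cyclin D3 (1-264), 5 nM, phosphorylating His-tagged Rb fragment (386-928) with 25 μM [32/33P]ATP at pH 7.4, 30 °C, 20 min (60 min for tight binders). Filter capture, phosphorimager read; % inhibition at 30 nM compound, Ki from competitive or tight-binding fits.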

T2 sequence (P11802 whole entry): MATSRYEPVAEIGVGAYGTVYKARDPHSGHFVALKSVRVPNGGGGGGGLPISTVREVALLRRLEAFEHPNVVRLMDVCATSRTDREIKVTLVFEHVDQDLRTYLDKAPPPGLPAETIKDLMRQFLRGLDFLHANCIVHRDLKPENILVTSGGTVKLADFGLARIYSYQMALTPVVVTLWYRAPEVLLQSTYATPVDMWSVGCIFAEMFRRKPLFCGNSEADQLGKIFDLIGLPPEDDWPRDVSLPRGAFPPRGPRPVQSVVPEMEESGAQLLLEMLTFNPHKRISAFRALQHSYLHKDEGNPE
T2 sequence (P30281 1-264 partner limits assumed): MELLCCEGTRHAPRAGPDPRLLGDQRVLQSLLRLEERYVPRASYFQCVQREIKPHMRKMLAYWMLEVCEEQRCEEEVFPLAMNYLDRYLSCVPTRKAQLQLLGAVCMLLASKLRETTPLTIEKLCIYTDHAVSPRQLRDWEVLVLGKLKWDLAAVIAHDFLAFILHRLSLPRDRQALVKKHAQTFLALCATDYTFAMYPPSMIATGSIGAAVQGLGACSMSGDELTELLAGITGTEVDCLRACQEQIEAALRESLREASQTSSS

| SMILES | HCT-116 % Inhibition at 0.1 μM (HCT-116 cell line) [%] | HCT-116 % Inhibition at 0.25 μM (HCT-116 cell line) [%] | CDK2 % Inhibition at 0.03 μM (CDK2/cyclin A) [%] | CDK4 % Inhibition at 0.03 μM (human CDK4/cyclin D3) [%] | HCT-116 % Inhibition at 0.1 μM (HCT-116 cell line; 0.1 µM) [%] | HCT-116 % Inhibition at 0.25 μM (HCT-116 cell line; 0.25 µM) [%] | CDK2 % Inhibition at 0.03 μM (CDK2/cyclin A; 0.03 µM) [%] | CDK4 % Inhibition at 0.03 μM (human CDK4/cyclin D3; 0.03 µM) [%] |
| --- | --- | --- | --- | --- | --- | --- | --- | --- |
| C=CCN(CC=C)C(=O)c1ccc(Nc2nc(N)c(C(=O)c3c(F)cccc3F)s2)cc1 [Example G272] | 10 | 47 | −20 | 0 |  |  |  |  |
| CC1CC(C)CN(C(=O)c2ccc(Nc3nc(N)c(C(=O)c4c(F)cccc4F)s3)cc2)C1 (centres unmarked) [Example G273] | 17 | 45 | −33 | −2 |  |  |  |  |
| Nc1nc(Nc2ccc(C(=O)NCCCCCO)cc2)sc1C(=O)c1c(F)cccc1F [Example G274] | 15 | 47 | −4 | 5 |  |  |  |  |
| Cc1ccc(CNC(=O)c2ccc(Nc3nc(N)c(C(=O)c4c(F)cccc4F)s3)cc2)cc1Cl [Example G275] | 25 | 63 | 27 | 19 |  |  |  |  |
| Nc1nc(Nc2ccc(C(=O)NCCc3cccc(C(F)(F)F)c3)cc2)sc1C(=O)c1c(F)cccc1F [Example G276] | 25 | 58 | 2 | −2 |  |  |  |  |
| Nc1nc(Nc2ccc(C(=O)NCc3ccncc3)cc2)sc1C(=O)c1c(F)cccc1F [Example G277] | 11 | 56 | 8 | 26 |  |  |  |  |
| Nc1nc(Nc2ccc(C(=O)NCc3ccc(F)cc3Cl)cc2)sc1C(=O)c1c(F)cccc1F [Example G278] | 6 | 76 | 25 | 27 |  |  |  |  |
| Nc1nc(Nc2ccc(C(=O)NCC(O)CO)cc2)sc1C(=O)c1c(F)cccc1F (centres unmarked) [Example G279] | 2 | 52 | −2 | 17 |  |  |  |  |
| Cc1cccc(NC(=O)c2ccc(Nc3nc(N)c(C(=O)c4c(F)cccc4F)s3)cc2)c1 [Example G280] | 7 | 70 | −7 | 9 |  |  |  |  |
| Nc1nc(Nc2ccc(C(=O)Nc3ccc(Cl)nc3)cc2)sc1C(=O)c1c(F)cccc1F [Example G281] | 6 | 63 | −9 | 12 |  |  |  |  |
| C#CCN(C)C(=O)c1ccc(Nc2nc(N)c(C(=O)c3c(F)cccc3F)s2)cc1 [Example G282] | 1 | 56 | −14 | 6 |  |  |  |  |
| CCSCCNC(=O)c1ccc(Nc2nc(N)c(C(=O)c3c(F)cccc3F)s2)cc1 [Example G283] | 16 | 75 | −6 | 10 |  |  |  |  |
| Cc1ccc(NC(=O)c2ccc(Nc3nc(N)c(C(=O)c4c(F)cccc4F)s3)cc2)c(F)c1 [Example G284] | 4 | 69 | −30 | −12 |  |  |  |  |
| CCOc1ccccc1CNC(=O)c1ccc(Nc2nc(N)c(C(=O)c3c(F)cccc3F)s2)cc1 [Example G285] | 1 | 60 | 13 | 18 |  |  |  |  |
| Nc1nc(Nc2ccc(C(=O)NCc3cc(Cl)ccc3Cl)cc2)sc1C(=O)c1c(F)cccc1F [Example G286] | 10 | 60 | 23 | 25 |  |  |  |  |
| Nc1nc(Nc2ccc(C(=O)Nc3cccc(Br)c3)cc2)sc1C(=O)c1c(F)cccc1F [Example G287] | 9 | 32 | −8 | 7 |  |  |  |  |
| Nc1nc(Nc2ccc(C(=O)Nc3ccc(Cl)cc3)cc2)sc1C(=O)c1c(F)cccc1F [Example G288] | 16 | 60 | −10 | 11 |  |  |  |  |
| Nc1nc(Nc2ccc(C(=O)Nc3cccc(F)c3)cc2)sc1C(=O)c1c(F)cccc1F [Example G289] | 7 | 62 | −6 | 9 |  |  |  |  |

| SMILES | HCT-116 % Inhibition at 0.1 μM (HCT-116 cell line) [%] | HCT-116 % Inhibition at 0.25 μM (HCT-116 cell line) [%] | CDK2 % Inhibition at 0.03 μM (CDK2/cyclin A) [%] | CDK4 % Inhibition at 0.03 μM (human CDK4/cyclin D3) [%] | HCT-116 % Inhibition at 0.1 μM (HCT-116 cell line; 0.1 µM) [%] | HCT-116 % Inhibition at 0.25 μM (HCT-116 cell line; 0.25 µM) [%] | CDK2 % Inhibition at 0.03 μM (CDK2/cyclin A; 0.03 µM) [%] | CDK4 % Inhibition at 0.03 μM (human CDK4/cyclin D3; 0.03 µM) [%] |
| --- | --- | --- | --- | --- | --- | --- | --- | --- |
| CCN(C)C(=O)c1ccc(Nc2nc(N)c(C(=O)c3c(F)cccc3F)s2)cc1 [Example G290] | 2 | 39 | −12 | −2 |  |  |  |  |
| Nc1nc(Nc2ccc(C(=O)NCCCCc3ccccc3)cc2)sc1C(=O)c1c(F)cccc1F [Example G291] | 5 | 53 | 6 | 14 |  |  |  |  |
| Nc1nc(Nc2ccc(C(=O)Nc3cccc(OC(F)(F)F)c3)cc2)sc1C(=O)c1c(F)cccc1F [Example G292] | 0 | 60 | −31 | −15 |  |  |  |  |
| Nc1nc(Nc2ccc(C(=O)NCc3cccc(C(F)(F)F)c3)cc2)sc1C(=O)c1c(F)cccc1F [Example G293] | 10 | 56 | 23 | 32 |  |  |  |  |
| Cc1cccc(CNC(=O)c2ccc(Nc3nc(N)c(C(=O)c4c(F)cccc4F)s3)cc2)c1C [Example G294] | 15 | 74 | 30 | 29 |  |  |  |  |
| COc1cc(NC(=O)c2ccc(Nc3nc(N)c(C(=O)c4c(F)cccc4F)s3)cc2)cc(OC)c1OC [Example G295] | 10 | 78 | 8 | 22 |  |  |  |  |
| CN(CCC#N)C(=O)c1ccc(Nc2nc(N)c(C(=O)c3c(F)cccc3F)s2)cc1 [Example G296] | 0 | 43 | 0 | 22 |  |  |  |  |
| Cc1cc(C)cc(NC(=O)c2ccc(Nc3nc(N)c(C(=O)c4c(F)cccc4F)s3)cc2)c1 [Example G297] | 0 | 45 | −3 | 8 |  |  |  |  |
| CCN(CC)CCN(C)C(=O)c1ccc(Nc2nc(N)c(C(=O)c3c(F)cccc3F)s2)cc1 [Example G298] | 0 | 46 | −9 | 30 |  |  |  |  |
| CCC(C)CN(CCO)C(=O)c1ccc(Nc2nc(N)c(C(=O)c3c(F)cccc3F)s2)cc1 (centres unmarked) [Example G299] | 10 | 49 | −11 | −7 |  |  |  |  |
| CC(NC(=O)c1ccc(Nc2nc(N)c(C(=O)c3c(F)cccc3F)s2)cc1)C1CCCCC1 (centres unmarked) [Example G300] |  |  |  |  | 18 | 70 | −18 | −10 |
| Nc1nc(Nc2ccc(C(=O)NCc3ccc(F)cc3F)cc2)sc1C(=O)c1c(F)cccc1F [Example G301] | 18 | 79 | 13 | 25 |  |  |  |  |
| Nc1nc(Nc2ccc(C(=O)NCc3ccc(F)c(C(F)(F)F)c3)cc2)sc1C(=O)c1c(F)cccc1F [Example G302] | 17 | 63 | 17 | 29 |  |  |  |  |
| CC1CCCCN1CCCNC(=O)c1ccc(Nc2nc(N)c(C(=O)c3c(F)cccc3F)s2)cc1 (centres unmarked) [Example G303] | 18 | 72 | 2 | 45 |  |  |  |  |
| N#CCCN(Cc1ccccc1)C(=O)c1ccc(Nc2nc(N)c(C(=O)c3c(F)cccc3F)s2)cc1 [Example G304] | 15 | 54 | 0 | 20 |  |  |  |  |
| Nc1nc(Nc2ccc(C(=O)Nc3ccc(Nc4ccccc4)cc3)cc2)sc1C(=O)c1c(F)cccc1F [Example G305] | 29 | 81 | −6 | 11 |  |  |  |  |
| CCCCN(Cc1ccccc1)C(=O)c1ccc(Nc2nc(N)c(C(=O)c3c(F)cccc3F)s2)cc1 [Example G306] | 9 | 44 | −17 | 0 |  |  |  |  |
